Results on eight molecules are retold here after paper PMC5674125, “Towards eco-friendly crop protection: natural deep eutectic solvents and defensive secondary metabolites” (Phytochemistry Reviews, 2017).

Data set [1] has as its system Zygogramma exclamationis. Details: method as in Olson and Roseland (1991). As to conditions: topical application of 100 µg/ml; ref Olson and Roseland (1991); cited from earlier work.
Data set [2] relates to Plutella xylostella. Details: method as in Peterson et al. (2003). The settings on record: ref Peterson et al. (2003); cited from earlier work.
Data set [3] deals with Spilarctia obliqua. Details: method as in Tripathi et al. (2011). The settings on record: 250 µg/g, compared with azadirachtin; ref Tripathi et al. (2011); cited from earlier work.
The test system of data set [4] is Sitobion avanae. Details: method as in Leszczynski et al. (1995). As to conditions: ref Leszczynski et al. (1995), cited from earlier work.
Data set [5] has as its system Anopheles arabiensis. Details: method as in Narayanaswamy et al. (2014). As to conditions: 100 µg/ml; ref Narayanaswamy et al. (2014); cited from earlier work.
The subject of data set [6] is Coptotermes formosanus. Details: method as in Adfa et al. (2010). As to conditions: 5 µmol; ref Adfa et al. (2010); cited from earlier work.
Data set [7] concerns Etiella zinckenella. Details: method as in Hattori et al. (1992). The settings on record: 0.5 mg; ref Hattori et al. (1992); cited from earlier work.
Data set [8] relates to Dalbulus maidis. Details: method as in Dowd and Vega (1996). As to conditions: adults, 400 ppm, in vitro bioassay; ref Dowd and Vega (1996); cited from earlier work.
The subject of data set [9] is Acanthoscelides obtectus. Details: method as in Regnault-Roger et al. (2004). The settings on record: adults, ref Regnault-Roger et al. (2004), cited from earlier work.
Data set [10] deals with Sitobion avanae. Details: method as in Chrzanowski et al. (2012). As to conditions: ref Chrzanowski et al. (2012); cited from earlier work.
Data set [11] relates to Sitodiplosis mosellana. Details: method as in Ding et al. (2000). The settings on record: constitutive levels exceeding 0.35 µg/g fresh weight (1.57 µg/g dry weight); ref Ding et al. (2000); cited from earlier work.
Data set [12] has as its system Choristoneura fumiferana. Details: method as in Grant and Langevin (2002). The settings on record: ref Grant and Langevin (2002), cited from earlier work.
In data set [13] the test system is Helicoverpa zea. Details: method as in Summers and Felton (1994). As to conditions: 4 mM, ref Summers and Felton (1994), cited from earlier work.
In data set [14] the test system is Helicoverpa armigera. Details: method as in Joshi et al. (2014). As to conditions: ref Joshi et al. (2014), cited from earlier work.
Data set [15] relates to Acyrthosiphon pisum. Details: method as in Goławska and Łukasik (2012). As to conditions: 100 µg cm^−3; ref Goławska and Łukasik (2012); cited from earlier work.
For data set [16], the system named is Frankliniella occidentalis. Details: method as in Leiss et al. (2013). The settings on record: 25% of natural plant concentrations (0.53 mg/g); ref Leiss et al. (2013); cited from earlier work.
Data set [17] concerns Spodoptera exigua. Details: method as in Cipollini et al. (2008). The settings on record: individual compound in diet plugs; ref Cipollini et al. (2008); cited from earlier work.
The nature of data set [18]: Solubility in natural deep eutectic solvents (saturated solutions, UV-VIS). The class given is physicochemical. As for the experimental part: As an extension of these studies, we have investigated the solubility of six insecticidal metabolites in a variety of NADES. The solvent selection framework consisted of the following steps: • Preliminary solvent screening: a pre-selected set of 20 NADES was used as a starting point to identify and rank potential NADES candidates (Table 3). Selection constraints were imposed on important properties such as viscosity and stability.
• Secondary screening: solubility tests were performed to determine the best solvent for each of the metabolites. Saturated solutions, generated by adding an excess amount of each compound to different NADES, were kept under constant stirring (1100 rpm) for 24 h at 50 °C. The 20 candidates were ranked in decreasing order of solvent power. • Solubility verification: For the verification of solubilities, samples were centrifuged for 5 min at 2000 rpm and subsequently diluted suitably with methanol for spectrophotometric analysis (UV-1800 UV–VIS spectrophotometer, Shimadzu Europe GmbH, Duisburg, Germany).

The test system of data set [19] is Liriomyza trifolii. Details: method as in Kashiwagi et al. (2005). As to conditions: 4.90 µg/cm^2; ref Kashiwagi et al. (2005); cited from earlier work.
In data set [20] the test system is Delia radicum. Details: method as in Jones et al. (1988). The settings on record: 10 mM in buffered solution; ref Jones et al. (1988); cited from earlier work.

The structures appear in SMILES notation. Where two headings read alike, the source gives them in different places. Where only a bound is given, the exact number is not on record here.

For `COc1cc2ccc(=O)oc2cc1O` [Scopoletin], the “Feeding deterrence (preference)” value in [1] is recorded as “Phytoalexin: feeding deterrent. Topical application of 100 µg/ml reduces preference”. Besides, in [2], the “Antibiosis (growth inhibitor), concentration in diet” value was > 2500 µg/g diet and the LD50 was ~8300 µg/mL. The “Antifeedant and growth inhibitory activity” value in data set [3] is “Antifeedant and growth inhibitor. At 250 µg/g deterrence and growth inhibition was similar to that of azadirachtin”. In addition, in data set [4] (2.5 mM), the Phloem sap ingestion entry is given as “Reduced ingestion of phloem sap at 2.5 mM”. For the same molecule, in [5], the Repellent activity result is recorded as “Repellent activity at 100 µg/ml”. Moreover, in [6], the “Termicidal and antifeedant effects” value is “Termicidal and antifeedant effects at 5 µmol”.

Take `O=C(O)C=Cc1ccc(O)cc1` [p-Coumaric acid]: the Oviposition deterrence result in data set [7] is reported as “Oviposition deterrent at 0.5 mg”. The Phloem sap ingestion result in data set [4] (concentration not given) was “Reduction ingestion of phloem sap”. Besides, the Antifeedant activity result in data set [8] is “Antifeedant activity in adults at 400 ppm (in vitro bioassay)”.

Consider `COc1cc(/C=C/C(=O)O)ccc1O` [Ferulic acid], for which, in data set [9] (day 8, in vitro bioassay), the “Knockdown effect (mobility and mortality)” value (“Knockdown effect” below) was “Knockdown effect: reduced mobility and increased mortality of adults at day 8 (in vitro bioassay)”. Besides, the Sieve element salvation result in [4] (2.5 mM) is listed as “Reduced sieve element salvation at 2.5 mM”. For the same molecule, in [8], the Antifeedant activity entry is “Antifeedant activity in adults at 400 ppm (in vitro bioassay)”. Further, the “Reproductive period and daily fecundity” value in data set [10] is “Prolonged reproductive period and reduced daily fecundity”. For the same molecule, in [11], the “Mortality of newly hatched larvae” value is on record as “Constitutive levels exceeding 0.35 µg/g fresh weight (1.57 µg/g dry weight) increased mortality of newly hatched larvae”. For the same molecule, the Oviposition deterrence result in data set [12] (7.8 nmol/cm^2, dual choice bioassay) is given as “Oviposition deterrent 7.8 nmol/cm^2 (dual choice bioassay)”.

Consider `O=C(O)/C=C/c1ccc(O)c(O)c1` [Caffeic acid], for which the “Knockdown effect” value in data set [9] (in vitro bioassay) was “Knockdown effect: reduced mobility and increased mortality in adults (in vitro bioassay)”. Further, the Phloem sap ingestion entry in data set [4] (2.5 mM) is given as “Reduction of phloem sap ingestion at 2.5 mM”. In addition, the “Prooxidant effect on midgut proteins” value in [13] (chronic exposure) is on record as “oxidative stress in midgut proteins”. In [13], the “Development rate, survivorship and pupal weight” value was “Development rate, survivorship and pupal weight negatively influenced”. In addition, in data set [14] (range of 50–200 ppm), the “Body weight and survival” value was “Body weight and survival significantly reduced”. The Mode of action entry in data set [14] is recorded as “Protease inhibitor”.

As for `O=c1cc(-c2ccc(O)c(O)c2)oc2cc(O)cc(O)c12` [Luteolin], the “Probing and feeding deterrence” value in data set [15] is “Probing and feeding deterrent at 100 µg cm^−3”. Besides, in [16], the “Mortality of first instar larvae” value is given as “Significant increase in mortality of first instar larvae at 25% of natural plant concentrations (0.53 mg/g)”. Moreover, in data set [17], the Anti-herbivory activity result is listed as “no anti-herbivory activity was observed” and the Feeding entry is “marginally stimulating feeding”. The Solubility in [18] (1,2-propanediol: choline chloride: water (1:1:1), water 7.71%, 24 h at 50 °C, mean ± SD, n = 3) was 13.08 ± 0.86 mg/g. The “Solubility enhancement with NADES compared to aqueous solubility” value in data set [18] (NADES of Table 4 versus water (Table 2)) is recorded as > 95 fold.

As for `O=c1cc(-c2ccc(O)c(O)c2)oc2cc(O[C@@H]3O[C@H](CO)[C@@H](O)[C@H](O)[C@H]3O[C@@H]3OCC(O)(CO)[C@H]3O)cc(O)c12` (stereo partly drawn) [Luteolin 7-O-β -D-apiofranosyl-(1→2)-β-D-glucopyranoside], in [19], the Ovipositional deterrence result is on record as “Ovipositional deterrent at 4.90 µg/cm^2”.

In the case of `O=c1cc(-c2ccc(O)c(O)c2)oc2cc(O[C@@H]3O[C@H](CO)[C@@H](O)[C@H](O)[C@H]3O)cc(O)c12` [Luteolin-7-glucoside], the “Knockdown effect” value in [9] (in vitro bioassay) is “Toxin: knockdown effect: reduced mobility and increased mortality”.

In the case of `COc1cc(/C=C/C(=O)O)cc(OC)c1O` [Sinapic acid], the Phloem sap ingestion result in [4] (2.5 mM) is listed as “Reduced ingestion of phloem sap at 2.5 mM”. Moreover, in data set [16], the “Mortality of first instar larvae” value is reported as “Significant increase in mortality of first instar larvae at 25% of natural plant concentrations (0.53 mg/g)”. In addition, the “Reduction of number of eggs (oviposition deterrent)” value in data set [20] is “Oviposition deterrent; 10 mM in buffered solution reduced number of eggs by 60–70%”. Besides, in [18], the Solubility is reported as 21.59 ± 0.24 mg/g and the “Solubility enhancement with NADES compared to aqueous solubility” value is given as > 34 fold. Besides, the Oviposition deterrence result in data set [12] (78.6 nmol/cm^2) is “Oviposition deterrent at 78.6 nmol/cm^2”.
